This is an account of results in patent US12486269B2 (Aconcagua Bio, Inc., priority 2024, dated 2025).

In test [1] the target is T1, COS-7/AMY3 (human calcitonin receptor (CTR) and RAMP3) (Homo sapiens, UniProt O60896+P30988).
T1 construct: expressed in transfected cells; host or cells: COS-7
Briefly: Amylin Receptor cAMP Assay II. As to conditions: values marked **: Amylin Receptor cAMP Assay II; COS-7/AMY3 cells, cAMP dynamic 2 kit, 30 min; read-out: Amylin Receptor cAMP Stimulation Activity: EC50. The class given is cell-based. In a few lines: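 Agonist-induced cAMP was quantified by HTRF ratio at 665/615 nm and expressed as % of the window from vehicle to MAX control. Stimulation lasted 30 min at 37 °C in HBSS/20 mM HEPES/0.5 mM IBMX/0.1% casein, using stable human CTR+RAMP3 (AMY3) COS-7 cells at 2000 per well.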

Test [2] has as its target T2, human calcitonin receptor (CTR) (Homo sapiens, UniProt P30988).
T2 construct: expressed in transfected cells; host or cells: COS-7 (COS7-human CTR Clone #2)
T2 sequence (P30988 25-474): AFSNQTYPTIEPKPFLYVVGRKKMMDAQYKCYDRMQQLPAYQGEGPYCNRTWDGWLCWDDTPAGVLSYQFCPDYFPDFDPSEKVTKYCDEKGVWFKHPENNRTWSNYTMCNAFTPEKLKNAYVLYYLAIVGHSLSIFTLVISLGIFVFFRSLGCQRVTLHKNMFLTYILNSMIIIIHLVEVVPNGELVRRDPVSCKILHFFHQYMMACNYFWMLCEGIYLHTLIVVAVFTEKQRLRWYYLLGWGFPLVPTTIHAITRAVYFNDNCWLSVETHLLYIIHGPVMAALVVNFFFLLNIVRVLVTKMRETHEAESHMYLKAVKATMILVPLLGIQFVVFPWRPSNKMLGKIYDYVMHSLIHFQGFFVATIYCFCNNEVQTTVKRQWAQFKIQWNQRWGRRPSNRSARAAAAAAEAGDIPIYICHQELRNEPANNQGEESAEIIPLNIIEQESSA
The test can be described thus: Calcitonin Receptor (CTR) cAMP Assay. The class given is cell-based. As to conditions: COS7-human CTR Clone #2 stable cell line, cAMP dynamic 2 kit, 30 min; read-out: Calcitonin Receptor cAMP Stimulation Activity: EC50. In a few lines: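 cAMP accumulation was measured by HTRF cAMP dynamic 2 read at 665/615 nm, 1 h at room temperature, with results scaled between vehicle and positive control. Before detection, COS7-human CTR stable cells were stimulated 30 min at 37 °C with compound (4-fold dilutions) in IBMX-containing HBSS/HEPES/casein buffer.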

T1 sequence (O60896 24-148, one chain of several): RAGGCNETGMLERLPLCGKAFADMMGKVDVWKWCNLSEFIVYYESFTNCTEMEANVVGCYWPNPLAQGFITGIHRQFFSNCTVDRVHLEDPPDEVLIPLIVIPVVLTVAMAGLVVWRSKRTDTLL

One may read the EC50 as the midpoint of the concentration-response curve. As to `COc1c(F)ccc2c1CC[C@H]2Nc1nc(C)cc2cc(-c3c4c(nc(CCc5ccc(F)cc5)c3-c3n[nH]c(=O)o3)[C@@H]3COCCN3C4=O)sc12` [Compound 263, (R)-4-(7-(((R)-5-fluoro-4-methoxy-2,3-dihydro-1H-inden-1-yl)amino)-5-methylthieno[2,3-c]pyridin-2-yl)-2-(4-fluorophenethyl)-3-(5-oxo-4,5-dihydro-1,3,4-oxadiazol-2-yl)-7,8,10,10a-tetrahydro-5H-pyrido[2′,3′:3,4]pyrrolo[2,1-c][1,4]oxazin-5-one], the EC50 in test [1] is 0.629 nM; in test [2] it was 0.0341 nM.
On the same counts, the results for `COc1nccc2c1CC[C@H]2Nc1nccc2cc(-c3c4c(nc(CCc5ccc(F)cc5)c3-c3n[nH]c(=O)o3)C35CC(CN3C4=O)C5)sc12` [Compound 264, (R)-5-(2-(4-fluorophenethyl)-4-(7-((1-methoxy-6,7-dihydro-5H-cyclopenta[c]pyridin-5-yl)amino)thieno[2,3-c]pyridin-2-yl)-5-oxo-8,9-dihydro-5H,7H-8,9a-methanopyrido[2,3-a]pyrrolizin-3-yl)-1,3,4-oxadiazol-2(3H)-one] are 7.4 nM and 0.247 nM.
For `Cc1cc2cc(-c3c4c(nc(CCc5ccc(F)cc5)c3-c3n[nH]c(=O)o3)C35CC(CN3C4=O)C5)sc2c(N[C@@H]2CCc3c(Cl)cncc32)n1` [Compound 265, (R)-5-(4-(7-((4-chloro-6,7-dihydro-5H-cyclopenta[c]pyridin-7-yl)amino)-5-methylthieno[2,3-c]pyridin-2-yl)-2-(4-fluorophenethyl)-5-oxo-8,9-dihydro-5H,7H-8,9a-methanopyrido[2,3-a]pyrrolizin-3-yl)-1,3,4-oxadiazol-2(3H)-one], the EC50 in test [1] was 7.34 nM; in test [2], 0.174 nM.
Consider `O=C1c2c(nc(CCc3ccc(F)cc3)c(-c3n[nH]c(=O)o3)c2-c2cc3ccnc(N[C@@H]4CCc5cc(Cl)cnc54)c3s2)C23CC(CN12)C3` [Compound 266, (R)-5-(4-(7-((3-chloro-6,7-dihydro-5H-cyclopenta[b]pyridin-7-yl)amino)thieno[2,3-c]pyridin-2-yl)-2-(4-fluorophenethyl)-5-oxo-8,9-dihydro-5H,7H-8,9a-methanopyrido[2,3-a]pyrrolizin-3-yl)-1,3,4-oxadiazol-2(3H)-one], for which the EC50 in test [1] came out at 182 nM; in test [2], 2.75 nM.
`COc1c(F)ccc2c1CC[C@H]2Nc1cccc2nc(-c3c4c(nc(CCc5ccc(F)cc5)c3-c3n[nH]c(=O)o3)C35CC(CN3C4=O)C5)sc12` [Compound 267, (R)-5-(4-(7-((5-fluoro-4-methoxy-2,3-dihydro-1H-inden-1-yl)amino)benzo[d]thiazol-2-yl)-2-(4-fluorophenethyl)-5-oxo-8,9-dihydro-5H,7H-8,9a-methanopyrido[2,3-a]pyrrolizin-3-yl)-1,3,4-oxadiazol-2(3H)-one]: the EC50 in test [1] came to 14.6 nM; in test [2] it was 0.738 nM.
`COc1c(F)ccc2c1CC[C@H]2Nc1ncnc2cc(-c3c4c(nc(CCc5ccc(F)cc5)c3-c3n[nH]c(=O)o3)C35CC(CN3C4=O)C5)sc12` [Compound 268, (R)-5-(4-(4-((5-fluoro-4-methoxy-2,3-dihydro-1H-inden-1-yl)amino)thieno[3,2-d]pyrimidin-6-yl)-2-(4-fluorophenethyl)-5-oxo-8,9-dihydro-5H,7H-8,9a-methanopyrido[2,3-a]pyrrolizin-3-yl)-1,3,4-oxadiazol-2(3H)-one]: the values for the EC50 in test [1] and in test [2] were 1.07 nM and 0.077 nM, respectively.
For `COc1c(F)ccc2c1CC[C@H]2Nc1nccc2sc(-c3c4c(nc(CCc5ccc(F)cc5)c3-c3n[nH]c(=O)o3)C35CC(CN3C4=O)C5)cc12` [Compound 269, (R)-5-(4-(4-((5-fluoro-4-methoxy-2,3-dihydro-1H-inden-1-yl)amino)thieno[3,2-c]pyridin-2-yl)-2-(4-fluorophenethyl)-5-oxo-8,9-dihydro-5H,7H-8,9a-methanopyrido[2,3-a]pyrrolizin-3-yl)-1,3,4-oxadiazol-2(3H)-one], in that order: 1.78 nM and 0.0975 nM.
Consider `COc1c(F)ccc2c1CC[C@H]2Nc1ncnc2sc(-c3c4c(nc(CCc5ccc(F)cc5)c3-c3n[nH]c(=O)o3)C35CC(CN3C4=O)C5)cc12` [Compound 270, (R)-5-(4-(4-((5-fluoro-4-methoxy-2,3-dihydro-1H-inden-1-yl)amino)thieno[2,3-d]pyrimidin-6-yl)-2-(4-fluorophenethyl)-5-oxo-8,9-dihydro-5H,7H-8,9a-methanopyrido[2,3-a]pyrrolizin-3-yl)-1,3,4-oxadiazol-2(3H)-one], for which the values for the EC50 in test [1] and in test [2] were 1.6 nM and 0.148 nM, respectively.
Turning to `COc1c(F)ccc2c1CC[C@H]2Nc1ccnc2cc(-c3c4c(nc(CCc5ccc(F)cc5)c3-c3n[nH]c(=O)o3)C35CC(CN3C4=O)C5)sc12` [Compound 271, (R)-5-(4-(7-((5-fluoro-4-methoxy-2,3-dihydro-1H-inden-1-yl)amino)thieno[3,2-b]pyridin-2-yl)-2-(4-fluorophenethyl)-5-oxo-8,9-dihydro-5H,7H-8,9a-methanopyrido[2,3-a]pyrrolizin-3-yl)-1,3,4-oxadiazol-2(3H)-one], the EC50 stood at 3.13 nM in test [1] and 0.178 nM in test [2].
In the case of `O=C1c2c(nc(CCc3ccc(F)cc3)c(-c3n[nH]c(=O)o3)c2-c2cc3ccnc(N[C@@H]4CCc5c(F)cccc54)c3s2)C23CC(CN12)C3` [Compound 272, (R)-5-(4-(7-((4-fluoro-2,3-dihydro-1H-inden-1-yl)amino)thieno[2,3-c]pyridin-2-yl)-2-(4-fluorophenethyl)-5-oxo-8,9-dihydro-5H,7H-8,9a-methanopyrido[2,3-a]pyrrolizin-3-yl)-1,3,4-oxadiazol-2(3H)-one], the EC50 in test [1] is 1.45 nM; in test [2] it was 0.0666 nM.
On the same counts, the results for `O=C1c2c(nc(CCc3ccc(F)cc3)c(-c3n[nH]c(=O)o3)c2-c2cc3ccnc(N[C@@H]4CCc5cc(Cl)ccc54)c3s2)C23CC(CN12)C3` [Compound 273, (R)-5-(4-(7-((5-chloro-2,3-dihydro-1H-inden-1-yl)amino)thieno[2,3-c]pyridin-2-yl)-2-(4-fluorophenethyl)-5-oxo-8,9-dihydro-5H,7H-8,9a-methanopyrido[2,3-a]pyrrolizin-3-yl)-1,3,4-oxadiazol-2(3H)-one] are 1.79 nM and 0.165 nM.
As to `O=C1c2c(nc(CCc3ccc(F)cc3)c(-c3n[nH]c(=O)o3)c2-c2cc3ccnc(N[C@@H]4CCc5ccc(Cl)cc54)c3s2)C23CC(CN12)C3` [Compound 274, (R)-5-(4-(7-((6-chloro-2,3-dihydro-1H-inden-1-yl)amino)thieno[2,3-c]pyridin-2-yl)-2-(4-fluorophenethyl)-5-oxo-8,9-dihydro-5H,7H-8,9a-methanopyrido[2,3-a]pyrrolizin-3-yl)-1,3,4-oxadiazol-2(3H)-one], the EC50 in test [1] amounted to 4.54 nM; in test [2], 0.255 nM.
Turning to `COc1c(F)ccc2c1CC[C@H]2Nc1nccc2cc(-c3c4c(nc(CCc5cccc(F)c5)c3-c3n[nH]c(=O)o3)C35CC(CN3C4=O)C5)sc12` [Compound 275, (R)-5-(4-(7-((5-fluoro-4-methoxy-2,3-dihydro-1H-inden-1-yl)amino)thieno[2,3-c]pyridin-2-yl)-2-(3-fluorophenethyl)-5-oxo-8,9-dihydro-5H,7H-8,9a-methanopyrido[2,3-a]pyrrolizin-3-yl)-1,3,4-oxadiazol-2(3H)-one], the figures for the EC50 in test [1] and in test [2] were 0.394 nM and 0.0262 nM, respectively.
